Measured values as given in article PMC11091220, “Metabolism-driven in vitro/in vivo disconnect of an oral ERɑ VHL-PROTAC” (Communications Biology, 2024).
Values joined by “and” are separate entries in the source; they are usually repeats but may differ in a detail not shown here. Equal values may be shown once.

Assays:
PR expression = experiment: ER agonism: PR expression in Ishikawa cells by western blot; assay type: cell-based
Method: Fig. 8 Evidence of ER agonism of AZ’6421 and compound 8 in vitro and in vivo. a 100 nM compound or 10 nM estradiol (E2) were incubated with Ishikawa cells for 48 h and lysates measured for PR expression by western blot. b Normalised rat uterine weight shown as % change from respective vehicle control after 4 days dosing. c Representative H&E stained images taken from sections of uterine horn after 4 days of dosing. d Total plasma exposure of AZ’6421 and its metabolite 8 following dosing of 100 mg/kg BID or 30 mg/kg BID AZ’6421. Plasma samples were taken 4 hr after the 4th dose, at the same time as the uterus was weighed and sectioned for H&E staining.
(§1) Cells were seeded into 12-well tissue culture-treated plates at 0.5 x 10^6 cells/well in phenol red-free RPMI containing 5% (v/v) charcoal-stripped FBS (F6765, Sigma) and left to adhere overnight. In experiments to detect agonism or for SILAC experiments, FBS was double stripped using activated charcoal. Cells were treated with compound or 0.1% DMSO vehicle control for the times indicated prior to being lysed in Pierce RIPA buffer (Thermo Scientific), supplemented with protease and phosphatase inhibitors. Expression levels of proteins were determined by standard western blotting techniques (BioRad 4%-12% Bis-Tris gels). Antibodies were diluted in 5% milk-PBS-Tween and protein levels were detected using Pierce WestDura chemiluminescent reagents followed by visualisation and quantification on a Syngene ChemiGenius Imager. Where blots were quantified, protein levels were normalised to beta-actin or vinculin control and expressed as % of vehicle control.

uterus = experiment: Immature female rat model, uterine weight and histology; assay type: in vivo
Description: Some endocrine therapies, such as tamoxifen, have been reported to display weak agonistic activity in the endometrium due to altered cofactor recruitment and subsequent activation of gene transcription. We therefore sought to test whether AZ’6421 was a complete antagonist or could act as a partial agonist, in both in vitro and in vivo models. […] Plasma samples were taken 4 hr after the 4th dose, at the same time as the uterus was weighed and sectioned for H&E staining. To further explore whether AZ’6421 may be acting as an agonist in vivo, morphological changes of the uterine were examined: uterine horns were formalin-fixed paraffin-embedded, stained with haematoxylin and eosin and then transverse sections of uterus examined.

ERα [1] = target: T1, ERα (Homo sapiens, UniProt P03372); experiment: Western blot analysis of ERα in MCF7 cells (dose response, MG132, VHL ligand and cpd 8 competition); assay type: cell-based; conditions: MCF7
T1 construct: endogenous in cells; host or cells: MCF7 (also MCF7 engineered to express Cas9)
T1 sequence (P03372 1-595): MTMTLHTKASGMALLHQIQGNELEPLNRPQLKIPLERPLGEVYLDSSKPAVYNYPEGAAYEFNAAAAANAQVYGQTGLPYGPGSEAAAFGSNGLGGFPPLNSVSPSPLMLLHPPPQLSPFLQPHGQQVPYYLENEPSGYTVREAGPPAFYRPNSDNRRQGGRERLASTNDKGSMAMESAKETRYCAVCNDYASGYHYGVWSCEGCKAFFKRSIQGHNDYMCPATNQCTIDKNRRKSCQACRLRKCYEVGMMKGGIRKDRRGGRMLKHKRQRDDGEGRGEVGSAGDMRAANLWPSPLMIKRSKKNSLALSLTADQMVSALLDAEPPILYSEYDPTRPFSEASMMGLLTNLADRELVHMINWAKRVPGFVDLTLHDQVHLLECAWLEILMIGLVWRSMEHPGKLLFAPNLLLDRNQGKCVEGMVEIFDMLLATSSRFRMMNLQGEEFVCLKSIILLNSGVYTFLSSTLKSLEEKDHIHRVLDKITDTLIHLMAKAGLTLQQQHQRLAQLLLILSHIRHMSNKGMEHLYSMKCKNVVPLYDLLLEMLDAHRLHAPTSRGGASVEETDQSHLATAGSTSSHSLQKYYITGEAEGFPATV
Method: Fig. 2 AZ’6421 degrades ERα through a PROTAC mechanism of action. a Immunoblots for ERα and vinculin loading control. MCF7 cells were pre-treated with 10 µM MG132 or DMSO control for 1 h before being exposed to DMSO, AZ’6421, or fulvestrant, at the concentrations indicated, for a further 7 h. A representative immunoblot from two biological replicates is shown. b As in a but cells were pre-treated with 10 µM VHL ligand (Ac-(S,R,S)-AHPC) prior to addition of DMSO, AZ’6421 or fulvestrant. c MCF7 cells expressing BFP-Cas9 were reverse transfected with the crRNA:tracrRNA pool targeting VHL for 72 h prior to treatment with increasing concentrations of AZ’6421 for a further 24 h. Cells were then fixed, stained, and imaged to assess ERα and Cas9 expression. ERα levels in Cas9 positive cells were normalised to unedited cells (0) and ESR1 KO cells (-100). Data points are from three independent experiments, points in bold represent the mean. d Structure of AZ’6421 and the (S)-prolinol epimer, 7. e Concentration-response curves for AZ’6421 and 7. ERα levels in MCF7 cells were assessed using an immunofluorescence endpoint after 24 h exposure to compound. […] Data points are from 5 (AZ'6421) or 2 (Cpd 7) independent experiments with technical duplicates performed for each experiment, bold points represent the mean. All concentration-response curves were plotted using nonlinear regression analysis in GraphPad Prism.
Fig. 6 Assessment of the cause of the in vitro/in vivo disconnect. a CTC174 tumours were disaggregated into single cells, seeded in 6-well plates and dosed with increasing concentrations of AZ’6421 for 24 hours before being lysed. ERα levels were assessed by immunoblotting. ERɑ levels normalised to vinculin and expressed as % DMSO control are shown underneath the immunoblot. b Representative IHC images taken from sections of tumour treated with vehicle control or 100 mg/kg AZ’6421 for 4 days. Sections were stained with an antibody against ERα (Sp1, Ventana). c Schematic of potential sites of metabolism d Free plasma exposure of AZ’6421 and its metabolite 8 following 100 mg/kg dosing of AZ’6421. e Concentration-response curves for AZ’6421 and metabolite 8. ERα levels in MCF7 cells were assessed using an immunofluorescence endpoint after 24 h exposure to compound. […] Points in bold represent the mean. f Effect of metabolite 8 on ERα degradation in CTC174 cells cultured ex vivo. […] MCF7 cells were pre-treated with 10 µM cpd 8 or DMSO control for 1 h before being exposed to DMSO, AZ’6421 or fulvestrant, at the concentrations indicated, for a further 24 h. A representative immunoblot from two biological replicates is shown. TEXT PRINTED IN THE PICTURE: (a) AZ'6421: ERα % of DMSO control: 20.3 (1 nM); ERα % of DMSO control: 12.0 (10 nM); ERα % of DMSO control: 4.1 (30 nM); ERα % of DMSO control: 4.2 (100 nM); ERα % of DMSO control: 3.9 (300 nM); ERα % of DMSO control: 3.6 (1000 nM)
as §1

ERα [2] = target: T1, ERα; experiment: Hypoxia studies, ERα degradation in MCF7 cells; assay type: cell-based; conditions: 100 nM
Method: MCF7 cells were seeded into 12-well tissue culture-treated plates at 0.5x10^6 cells/well in phenol red-free RPMI media containing 5% (volume/volume [v/v]) charcoal-stripped FBS (F6765, Sigma) and left to adhere overnight. The hypoxia-treated plates were transferred to a Thermo Heracell 150 Tri-gas Incubator set at 2% O2 and allowed to equilibrate to the lower oxygen level overnight. Cells were treated with compound or 0.1% DMSO vehicle control for 48 hours prior to being lysed in Pierce RIPA buffer (Thermo Scientific), supplemented with protease and phosphatase inhibitors. Lysis was carried out immediately after removal from the Tri-gas incubator to prevent the rapid degradation of HIF1α on re-exposure to the higher oxygen levels. Protein expression was determined by standard western blotting procedures as described above.

ERα [3] = target: T1, ERα; experiment: SILAC pulse-chase and mass spectrometry, ERα turnover in MCF7 cells; assay type: cell-based; conditions: 1 µM
Method: MCF7 cells were grown for a minimum of 2 passages in SILAC media (Pierce, Thermo Scientific) containing ^13C6^15N4 arginine and ^13C6 lysine. The extent of stable isotope incorporation was determined by mass spectrometry. For the assay, cells were plated at 1.2 x 10^6 cells/well into 6-well TC-treated plates in media containing 5% double charcoal stripped FBS^13,C6^15N4 arginine and ^13C6^15N2 lysine for 24 hours. At time 0, the media containing isotopically heavy arginine and lysine was replaced with media containing unlabelled equivalents plus either AZ’6421, fulvestrant or DMSO control. […] Equal concentrations of timecourse lysates were mixed with an internal standard lysate derived from ^[…] lysine labelled MCF7 cells. ER protein was immunoprecipitated overnight at 4 °C with an ER antibody (Rabbit clone SP1, Thermo Scientific) and immobilised onto a U-bottomed Nunc MaxiSorp plate (Thermo Scientific). Wells were sequentially washed with each of the following; RIPA buffer, PBS and water. Samples were digested by addition of 30 μL well sequencing grade trypsin (Promega) in 50 mM ammonium bicarbonate at 37 °C for a minimum of 16 hours. The resultant peptide samples were acidified and analysed by selected reaction monitoring (SRM) mass spectrometry. Protein half-life was determined using the one-phase exponential decay function in GraphPad PRISM where Y = (Y0 - Plateau)*exp(-K*X) + Plateau.

uterine epithelium morphology (H&E) (uterus; immature female rat, 4 days dosing) | effect of MG132 pre-treatment on ERα degradation (ERα [1]; 10 µM MG132 1 h, then compound 7 h) | effect of excess acetylated-(S,R,S)-AHPC pre-treatment on ERα degradation (ERα [1]; 10 µM VHL ligand) | ERa levels (% of vehicle control) (ERα [2]; Hypoxic) [%] | ERa levels (% of vehicle control) (ERα [2]; Normoxic) [%] | % heavy (ERα heavy peptide) (ERα [3]; Time 0, MCF7) [%] | % heavy (ERα heavy peptide) (ERα [3]; Time 0.5) | % heavy (ERα heavy peptide) (ERα [3]; Time 1) | % heavy (ERα heavy peptide) (ERα [3]; Time 2) | % heavy (ERα heavy peptide) (ERα [3]; Time 4) | % heavy (ERα heavy peptide) (ERα [3]; Time 7) | % heavy (ERα heavy peptide) (ERα [3]; Time 24) | % heavy (ERα heavy peptide) (ERα [3]; Time 48) | Compound | PR expression (% vs 10 nM E2) (PR expression; 100 nM compound, individual replicates) | PR expression in the Ishikawa endometrial cell line (PR expression; 100 nM, 48 h) | Uterine weight normalised to body weight (% vehicle) (uterus; 5 mg/kg, individual animals)
low columnar uterine epithelium |  |  |  |  |  |  |  |  |  |  |  |  | C[C@@H]1Cc2c([nH]c3ccccc23)[C@@H](c2c(F)cc(/C=C/C(=O)O)cc2F)N1CC(C)(C)F [AZD9496, (E)-3-(3,5-Difluoro-4-((1R,3R)-2-(2-fluoro-2-methylpropyl)-3-methyl-2,3,4,9-tetra hydro-1H-pyrido[3,4-b]indol-1-yl)phenyl)acrylic Acid, reference compound] | 5.08% and 7% | induced PR expression | 178.44% and 156.17% and 157.43% and 195.46% and 128.27%
 | attenuated ERα degradation | had no effect | 5.829 | 10.860 | 100.0 | 39.1% and 49.6% and 42.4% | 29.7% and 37.1% and 33.5% | 20.8% and 29.3% and 28.1% | 10.9% and 15.5% and 18.5% | 5.3% and 6.8% and 7.7% | 4.3% and 6.1% | 4.6% and 6.1% and 3.9% | C[C@]12CC[C@@H]3c4ccc(O)cc4C[C@@H](CCCCCCCCC[S+]([O-])CCCC(F)(F)C(F)(F)F)[C@H]3[C@@H]1CC[C@@H]2O (stereo partly shown) [fulvestrant, reference compound] |  |  | 
